Test results published in patent US12029738B2, “Antiproliferative compounds and methods of use thereof” (Celgene Corporation, priority 2017, dated 2024).
“Also recorded” adds a separate entry of the source. Read-outs that look alike come from different tables or passages of the source.

Legend:
in vivo = settings: male, CD-IGS, rat, po
Experimental: 7-Day Exploratory Toxicology Studies in Male Rats. Methods. Male CD-IGS rats (n=5/group for toxicologic assessment; n=4/group for toxicokinetic assessment) were dosed once daily by oral gavage (10 mL/kg) with vehicle (0.5% HPMC/0.25% Tween-80 in 50 mM citrate, pH 2.6-2.8) or test articles (Compound A or Compound 1) at 100, 300 or 1000 mg/kg/day for 7 consecutive days. Blood samples for toxicokinetics were collected on Days 1 and 7. […] Body weight was recorded at randomization, prior to dosing on Days 1-7 and prior to necropsy. Samples for hematology and serum chemistry analyses were collected on Day 8, approximately 24 h after the last dose. Rats were euthanized on Day 8 for necropsy. Anatomic pathology evaluation consisted of gross observation, organ weight and histopathologic examination of select tissues.

[1] = test system: lenalidomide-resistant multiple myeloma cells (H929-1051); assay: Apoptosis induction with dexamethasone combinations (Caspase-Glo 3/7, 72 h); assay type: cell-based, human
Experimental: Methods: Dexamethasone was assessed for its ability to induce apoptosis as a single agent or in combination with Compound 2, pomalidomide, or lenalidomide. Induction of apoptosis was measured using Caspase-Glo in lenalidomide-resistant multiple myeloma cells (H929-1051). Dexamethasone was dispensed at 20 concentrations, using an acoustic dispenser. The test articles were added as single concentrations onto the dexamethasone wells with a Hewlett-Packard D300 Digital Dispenser. The final concentrations of compounds for the assay were: dexamethasone (0.8 μM to 0.00002 μM), lenalidomide (1 μM), pomalidomide (0.1 μM), and Compound 2 (0.001, 0.01, or 0.1 μM). Cells were dispensed into the assay plates with a Multidrop dispenser and duplicate plates were made for the assay. The apoptosis read was taken at 72 h post-compound treatment using a Caspase-Glo 3/7 and CellTiter-Glo Assays. The Caspase-Glo 3/7 luminescence was normalized to the CellTiter-Glo luminescence to account for differences in cell number. The fold change of the treated sample was calculated as follows: normalized caspase of treated sample/average of normalized DMSO control.

[2] = test system: CD38 expression in MM cell lines; assay: Cell surface CD38 expression in MM cells (72 h pretreatment); assay type: cell-based, human; settings: 72 h treatment
Experimental: FIG. 17. Compound 2 upregulates CD38 expression in MM cell lines. The cell surface expression of CD38 was evaluated in MM cells pretreated with Compound 2 or pomalidomide for 72 h. The dose response effects are shown for OPM-2 and OPM-2.P10 cell lines.
The extent of CD38 expression was greater with Compound 2 and occurred at lower concentrations compared to pomalidomide. MM cells+/−Compound 2 or pomalidomide pretreatment were evaluated in ADCC assays with daratumumab. […] Compound 2 treated cells were also more sensitive to daratumumab-mediated ADCC compared to pomalidomide treated cells. The ability of Compound 2 and pomalidomide to modulate daratumumab-mediated ADCP was also tested.

OPM2-P10 = assay: PBMC and MM cell treatment assay (single culture vs co-culture); assay type: cell-based, human; settings: for IC50: Homo sapiens, PBMC, read-out: Immune-mediated Cell Killing IC50
Experimental: (§1) PBMC and MM Cell Treatment Assay Procedure. Ninety-six-well dishes were pre-coated with anti-CD3 antibody (OKT3, 3 μg/mL) and incubated at 4° C. overnight before the start of the experiment. Frozen PBMC donor cells were thawed at 37° C. for 2 minutes in RPMI medium with 10% FBS and cell counts and viability were measured on the Vi-CELL analyzer. Peripheral blood mononuclear cells were washed and diluted to 1×10^6 cells/mL and dispensed into the compound-treated plates in a total volume of 200 μL. Cells were incubated with compounds for 2 h before being transferred onto anti-CD3-coated plates and incubated for an additional 72 h. At the same time, MM cell lines (NCI-H929, H929-1051, OPM2, OPM2-P10) were diluted to a final concentration of 0.1×10^6 cells/mL and labeled with CellTrace CFSE according to manufacturer's instructions. Multiple myeloma cell lines were then dispensed into compound-treated plates at a total volume of 200 μL and incubated for 72 h. After 72 h, the PBMCs and MM cells were counted and transferred into a U-bottom 96-well plate at a final T:E ratio of 1:5. After 24 h coculture, specific target cell lysis by PBMC cells was measured using Annexin V-AF647 and 7-AAD according to manufacturer's instructions and samples were run on the Attune NxT Cytometer.
(§2) Because preincubation of immune cells with Compound 2 enhanced the targeting and lysing of MM cells, the effect of preincubation of MM cells with Compound 2 on their susceptibility to immune-mediated killing was also explored (FIG. 16A, FIG. 16B, FIG. 16C, and FIG. 16D, Table 12). Four MM cell lines and anti-CD3 antibody-activated PBMCs were separately preincubated with Compound 2, lenalidomide, or pomalidomide for 72 h. When anti-CD3 antibody-activated PBMCs and MM lines were both pretreated with Compound 2, lenalidomide, or pomalidomide, followed by co-culture, the effects on the PBMC-induced MM cell lysis were enhanced both in the potency and magnitude of the killing response. […] For the pomalidomide-resistant OPM2-P10 cell line, Compound 2 treatment of the MM cells enhanced the immune-mediated killing by ˜3000-fold (Table 12).

H929-1051 = assay: as above; assay type: cell-based, human; settings: for IC50: Homo sapiens, PBMC, read-out: Immune-mediated Cell Killing IC50
Experimental: as §1, §2

NCI-H929 = assay: as above; assay type: cell-based, human; settings: for IC50: Homo sapiens, NCI-H929, NCI-H929, read-out: Immune-mediated Cell Killing IC50
Experimental: as §1, §2

CYP2A6 = biological target: T1, CYP2A6 (Homo sapiens, UniProt P11509); assay: CYP inhibition in pooled human liver microsomes; assay type: in vitro ADME; settings: up to 30 μM
T1 construct: from tissue; host or cells: pooled human liver microsomes
T1 sequence (P11509 whole entry): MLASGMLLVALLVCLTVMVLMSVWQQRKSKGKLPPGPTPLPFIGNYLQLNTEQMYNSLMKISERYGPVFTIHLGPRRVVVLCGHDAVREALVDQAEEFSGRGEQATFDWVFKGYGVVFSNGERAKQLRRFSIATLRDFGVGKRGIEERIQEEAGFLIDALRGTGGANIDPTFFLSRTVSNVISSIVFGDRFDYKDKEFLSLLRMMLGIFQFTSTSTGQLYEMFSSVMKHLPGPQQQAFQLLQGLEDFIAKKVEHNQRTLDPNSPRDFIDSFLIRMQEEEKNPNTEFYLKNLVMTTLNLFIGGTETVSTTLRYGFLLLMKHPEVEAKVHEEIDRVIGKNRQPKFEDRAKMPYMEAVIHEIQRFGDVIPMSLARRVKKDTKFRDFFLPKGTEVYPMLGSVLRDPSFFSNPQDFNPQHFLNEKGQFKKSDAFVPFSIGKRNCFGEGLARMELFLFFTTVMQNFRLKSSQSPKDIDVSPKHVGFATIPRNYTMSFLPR
Experimental: (§3) Methods. […] In addition, the compounds were evaluated for their potential to act as a time-dependent inhibitors at the same concentrations mentioned above. […] In addition to appropriate vehicle controls, known direct inhibitors and time-dependent inhibitors of CYP isoforms were included as positive controls. Following the incubation, concentrations of probe substrate metabolites were quantified using established LC/MS/MS methods. The extent of inhibition was expressed as the percentage of control activity.

CYP1A2 = biological target: T2, CYP1A2 (Homo sapiens, UniProt P05177); assay: CYP inhibition in pooled human liver microsomes; assay type: in vitro ADME; settings: up to 30 μM
T2 construct: from tissue; host or cells: pooled human liver microsomes
T2 sequence (P05177 whole entry): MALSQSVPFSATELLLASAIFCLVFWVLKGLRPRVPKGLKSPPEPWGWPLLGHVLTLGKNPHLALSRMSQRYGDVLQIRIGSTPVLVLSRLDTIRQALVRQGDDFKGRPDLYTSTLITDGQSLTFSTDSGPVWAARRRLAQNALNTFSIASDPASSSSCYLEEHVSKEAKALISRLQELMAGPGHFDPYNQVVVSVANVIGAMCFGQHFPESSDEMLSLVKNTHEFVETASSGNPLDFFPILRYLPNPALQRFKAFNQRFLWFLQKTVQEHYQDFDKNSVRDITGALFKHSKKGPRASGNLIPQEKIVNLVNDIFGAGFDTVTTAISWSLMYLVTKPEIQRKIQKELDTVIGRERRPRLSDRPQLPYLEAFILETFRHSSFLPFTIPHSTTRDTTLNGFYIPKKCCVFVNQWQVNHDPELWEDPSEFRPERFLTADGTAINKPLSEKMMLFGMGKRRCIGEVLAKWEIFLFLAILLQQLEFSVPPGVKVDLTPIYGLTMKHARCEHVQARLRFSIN
Experimental: as §3

CYP2E1 = biological target: T3, CYP2E1 (Homo sapiens, UniProt P05181); assay: CYP inhibition in pooled human liver microsomes; assay type: in vitro ADME; settings: up to 30 μM
T3 construct: from tissue; host or cells: pooled human liver microsomes
T3 sequence (P05181 whole entry): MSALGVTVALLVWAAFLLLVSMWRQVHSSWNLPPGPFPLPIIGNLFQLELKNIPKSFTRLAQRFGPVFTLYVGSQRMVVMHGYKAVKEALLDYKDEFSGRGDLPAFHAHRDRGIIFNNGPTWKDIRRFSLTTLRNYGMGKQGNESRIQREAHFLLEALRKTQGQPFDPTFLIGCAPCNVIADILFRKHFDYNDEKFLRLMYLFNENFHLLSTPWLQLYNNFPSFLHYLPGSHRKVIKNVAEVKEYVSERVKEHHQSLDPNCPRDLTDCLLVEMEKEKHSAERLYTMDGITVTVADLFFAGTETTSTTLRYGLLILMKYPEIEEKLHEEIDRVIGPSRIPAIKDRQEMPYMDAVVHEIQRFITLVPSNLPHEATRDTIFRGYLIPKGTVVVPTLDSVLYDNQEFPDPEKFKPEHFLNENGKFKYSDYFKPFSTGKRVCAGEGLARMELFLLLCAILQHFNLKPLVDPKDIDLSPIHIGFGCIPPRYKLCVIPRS
Experimental: as §3

CYP2D6 = biological target: T4, CYP2D6 (Homo sapiens, UniProt P10635); assay: CYP inhibition in pooled human liver microsomes; assay type: in vitro ADME; settings: up to 30 μM
T4 construct: from tissue; host or cells: pooled human liver microsomes
T4 sequence (P10635 whole entry): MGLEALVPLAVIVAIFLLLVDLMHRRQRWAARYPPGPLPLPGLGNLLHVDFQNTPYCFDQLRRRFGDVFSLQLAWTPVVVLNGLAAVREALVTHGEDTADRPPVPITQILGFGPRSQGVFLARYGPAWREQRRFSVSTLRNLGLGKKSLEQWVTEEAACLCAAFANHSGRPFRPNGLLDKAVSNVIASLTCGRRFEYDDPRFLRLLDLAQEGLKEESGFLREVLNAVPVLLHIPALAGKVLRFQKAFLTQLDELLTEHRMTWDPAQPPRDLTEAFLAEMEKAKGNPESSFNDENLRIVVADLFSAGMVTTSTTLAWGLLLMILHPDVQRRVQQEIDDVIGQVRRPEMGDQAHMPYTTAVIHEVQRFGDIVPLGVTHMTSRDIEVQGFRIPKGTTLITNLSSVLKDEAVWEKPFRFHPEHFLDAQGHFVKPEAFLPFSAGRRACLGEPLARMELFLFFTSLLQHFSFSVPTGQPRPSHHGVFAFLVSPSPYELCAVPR
Experimental: as §3

[3] = 30 minute preincubation with or without NADPH

Compound: N#Cc1ccc(N2CCN(Cc3ccc(COc4cccc5c4CN(C4CCC(=O)NC4=O)C5=O)cc3)CC2)c(F)c1 (racemic) [Compound 1, 4-(4-(4-(((2-(2,6-dioxopiperidin-3-yl)-1-oxoisoindolin-4-yl)oxy)methyl)benzyl)piperazin-1-yl)-3-fluorobenzonitrile]
- AUC(0-t) (in vivo; 100 mg/kg/day): 143 µM·h
- AUC(0-t) (in vivo; 300 mg/kg/day): 514 µM·h
- AUC(0-t) (in vivo; 1000 mg/kg/day): 1220 µM·h
- dose at which minimal decreases in body weight gain were observed (in vivo; 7 days): ≥ 300 mg/kg

Compound: N#Cc1ccc(N2CCN(Cc3ccc(COc4cccc5c4CN([C@H]4CCC(=O)NC4=O)C5=O)cc3)CC2)c(F)c1 [Compound 2, (S)-4-(4-(4-(((2-(2,6-dioxopiperidin-3-yl)-1-oxoisoindolin-4-yl)oxy)methyl)benzyl)piperazin-1-yl)-3-fluorobenzonitrile]
- combination effect with dexamethasone on cell viability and apoptosis ([1]; Compound 2 0.001, 0.01, 0.1 μM): synergized with dexamethasone
- shift of the onset of dexamethasone activity in the presence of Compound 2 ([1]; caspase-3 induction): 1 log
- CD38 expression in MM cells [2]: dose-dependent increase of CD38 expression
- enhancement of immune-mediated killing, co-culture versus single culture IC50 (OPM2-P10): ~3000 fold
- IC50 (OPM2-P10; Co-culture with PBMCs): 3.1 nM
- IC50 (OPM2-P10; Single culture): > 10000 nM
- enhancement of killing, co-culture versus single culture IC50 (H929-1051; H929-1051): ~6000 fold
- IC50 (H929-1051; H929-1051, Single culture): 575 nM
- IC50 (H929-1051): 0.1 nM
- IC50 (NCI-H929; Co-culture with PBMCs): 0.087 nM
- IC50 (NCI-H929; Single culture): 581 nM
- enhancement of killing, co-culture versus single culture IC50 (NCI-H929; NCI-H929): ~7000 fold

Compound: O=C1CC[C@H](N2Cc3c(OCc4ccc(CN5CCN(c6ccc(F)cc6F)CC5)cc4)cccc3C2=O)C(=O)N1 [Compound B]
- time-dependent inhibition of CYP2A6 (CYP2A6; [3]): little to no time-dependent inhibition; also recorded: not a time-dependent inhibitor
- direct inhibition of CYP2A6 (CYP2A6; human liver microsomes): up to 30%
- time-dependent inhibition of CYP1A2 (CYP1A2; [3]): little to no time-dependent inhibition; also recorded: not a time-dependent inhibitor
- direct inhibition of CYP1A2 (CYP1A2; human liver microsomes): up to 30%
- time-dependent inhibition of CYP2E1 (CYP2E1; [3]): little to no time-dependent inhibition; also recorded: not a time-dependent inhibitor
- direct inhibition of CYP2E1 (CYP2E1; human liver microsomes): up to 30%
- time-dependent inhibition of CYP2D6 (CYP2D6; [3]): little to no time-dependent inhibition; also recorded: not a time-dependent inhibitor
- direct inhibition of CYP2D6 (CYP2D6; human liver microsomes): up to 30%

Compound: Nc1cccc2c1C(=O)N(C1CCC(=O)NC1=O)C2=O (stereo not shown) [Pomalidomide, pomalidomide]
- CD38 expression in MM cells [2]: dose-dependent increase of CD38 expression
- IC50 (OPM2-P10; Co-culture with PBMCs): 1180 nM
- IC50 (OPM2-P10; Single culture): > 10000 nM
- IC50 (H929-1051; H929-1051, Co-culture with PBMCs): 71.3 nM
- IC50 (H929-1051; H929-1051, Single culture): > 10000 nM
- IC50 (NCI-H929; Co-culture with PBMCs): 44.4 nM
- IC50 (NCI-H929; Single culture): > 10000 nM
